Data reported in patent US20230085307A1, “PYRIDAZINONE COMPOUND AND HERBICIDE” (NISSAN CHEMICAL CORPORATION, priority 2019, published 2023).

Key:
blackgrass [1] = test: Test Example 4: herbicidal effect by soil treatment (Table 19, symbol J); type: in vivo, blackgrass (Alopecurus myosuroides); conditions: AAH 320 g/ha
In short: (§1)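 Three weeks of greenhouse growth at 25° C. to 30° C. followed a uniform surface spray of water-diluted emulsion at a predetermined herbicide amount. Seeds had been sown beforehand under about 1.5 cm of sterilized diluvial soil. Grading followed criteria set out in an earlier test.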

persian speedwell [2] = test: Test Example 4: herbicidal effect by soil treatment (Table 19, symbol R); type: in vivo, Persian speedwell (Veronica persica); conditions: AAH 320 g/ha
In short: as §1

windgrass [3] = test: Test Example 4: herbicidal effect by soil treatment (Table 19, symbol L); type: in vivo, windgrass (Apera spica-venti); conditions: AAH 320 g/ha
In short: as §1

persian speedwell [4] = test: Test Example 5: herbicidal effect by foliage application, plastic box (Table 20, symbol R); type: in vivo, Persian speedwell (Veronica persica); conditions: foliage application, 320 g/ha, 3 weeks after application
In short: (§2)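 Plants sown in sterilized diluvial soil and grown 14 days in a greenhouse at 25° C to 30° C, then sprayed on the foliage with the compound's emulsion diluted in water to a predetermined herbicide amount. Injury to weeds and crops scored three weeks after application on a visual rating scale.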

green foxtail [5] = test: Test Example 5: herbicidal effect by foliage application, plastic box (Table 20, symbol G); type: in vivo, green foxtail (Setaria viridis); conditions: foliage application, 320 g/ha, 3 weeks after application
In short: as §2

barnyard grass [6] = test: Test Example 5: herbicidal effect by foliage application, plastic box (Table 20, symbol H); type: in vivo, barnyard grass (Echinochloa crus-galli); conditions: foliage application, 320 g/ha, 3 weeks after application
In short: as §2

Chinese sprangletop = test: Test Example 3: herbicidal effect by foliage application, Wagner pot (Table 18, symbol D); type: in vivo, chinese sprangletop (Leptochloa chinensis); conditions: 320 g/ha
In short: (§3)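 Plants were sown in alluvial soil held under 0.1–0.5 cm standing water and grown 14 days in a greenhouse at 25–30 °C. An emulsifiable formulation, water-diluted to the set dose, was then sprayed onto the foliage, and effects were scored three weeks later using previously defined criteria.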

green foxtail [7] = test: Test Example 4: herbicidal effect by soil treatment (Table 19, symbol G); type: in vivo, green foxtail (Setaria viridis); conditions: AAH 320 g/ha
In short: as §1

lambsquarters [8] = test: Test Example 4: herbicidal effect by soil treatment (Table 19, symbol O); type: in vivo, lambsquarters (Chenopodium album); conditions: AAH 320 g/ha
In short: as §1

lambsquarters [9] = test: Test Example 5: herbicidal effect by foliage application, plastic box (Table 20, symbol O); type: in vivo, lambsquarters (Chenopodium album); conditions: foliage application, 320 g/ha, 3 weeks after application
In short: as §2

southern crabgrass [10] = test: Test Example 4: herbicidal effect by soil treatment (Table 19, symbol F); type: in vivo, southern crabgrass (Digitaria ciliaris); conditions: AAH 320 g/ha
In short: as §1

windgrass [11] = test: Test Example 5: herbicidal effect by foliage application, plastic box (Table 20, symbol L); type: in vivo, windgrass (Apera spica-venti); conditions: foliage application, 320 g/ha, 3 weeks after application
In short: as §2

wild oat [12] = test: Test Example 4: herbicidal effect by soil treatment (Table 19, symbol I); type: in vivo, wild oat (Avena fatua); conditions: AAH 320 g/ha
In short: as §1

barnyard grass [13] = test: Test Example 4: herbicidal effect by soil treatment (Table 19, symbol H); type: in vivo, barnyard grass (Echinochloa crus-galli); conditions: AAH 320 g/ha
In short: as §1

Italian ryegrass [14] = test: Test Example 5: herbicidal effect by foliage application, plastic box (Table 20, symbol K); type: in vivo, Italian ryegrass (Lolium multiflorum); conditions: foliage application, 320 g/ha, 3 weeks after application
In short: as §2

wild oat [15] = test: Test Example 5: herbicidal effect by foliage application, plastic box (Table 20, symbol I); type: in vivo, wild oat (Avena fatua); conditions: foliage application, 320 g/ha, 3 weeks after application
In short: as §2

southern crabgrass [16] = test: Test Example 5: herbicidal effect by foliage application, plastic box (Table 20, symbol F); type: in vivo, southern crabgrass (Digitaria ciliaris); conditions: foliage application, 320 g/ha, 3 weeks after application
In short: as §2

velvetleaf [17] = test: Test Example 4: herbicidal effect by soil treatment (Table 19, symbol M); type: in vivo, velvetleaf (Abutilon theophrasti); conditions: AAH 320 g/ha
In short: as §1

chickweed = test: Test Example 4: herbicidal effect by soil treatment (Table 19, symbol P); type: in vivo, common chickweed (Stellaria media); conditions: AAH 320 g/ha
In short: as §1

blackgrass [18] = test: Test Example 5: herbicidal effect by foliage application, plastic box (Table 20, symbol J); type: in vivo, blackgrass (Alopecurus myosuroides); conditions: foliage application, 320 g/ha, 3 weeks after application
In short: as §2

velvetleaf [19] = test: Test Example 5: herbicidal effect by foliage application, plastic box (Table 20, symbol M); type: in vivo, velvetleaf (Abutilon theophrasti); conditions: foliage application, 320 g/ha, 3 weeks after application
In short: as §2

barnyard grass [20] = test: Test Example 3: herbicidal effect by foliage application, Wagner pot (Table 18, symbol H); type: in vivo, barnyard grass (Echinochloa crus-galli); conditions: 320 g/ha
In short: as §3

redroot pigweed = test: Test Example 4: herbicidal effect by soil treatment (Table 19, symbol N); type: in vivo, redroot pigweed (Amaranthus retroflexus); conditions: AAH 320 g/ha
In short: as §1

rice flat sedge = test: Test Example 3: herbicidal effect by foliage application, Wagner pot (Table 18, symbol E); type: in vivo, rice flat sedge (Cyperus iria); conditions: 320 g/ha
In short: as §3

Italian ryegrass [21] = test: Test Example 4: herbicidal effect by soil treatment (Table 19, symbol K); type: in vivo, Italian ryegrass (Lolium multiflorum); conditions: AAH 320 g/ha
In short: as §1

false cleavers = test: Test Example 4: herbicidal effect by soil treatment (Table 19, symbol Q); type: in vivo, false cleavers (Galium spurium); conditions: AAH 320 g/ha
In short: as §1

Cc1nn(C)c(=O)c(-c2c(-c3ccc(CSCC(F)(F)F)cc3)sc3ccccc23)c1O [1-249] was tested, and the “J: blackgrass, herbicidal effect rating” value (blackgrass [1]) was 0 (Herbicidal rate of 5% or less (almost no effect)), the “R: persian speedwell, herbicidal effect rating” value (persian speedwell [2]) was 4 (Herbicidal rate of 70% or more and less than 90%) and the “L: windgrass, herbicidal effect rating” value (windgrass [3]) was 0 (Herbicidal rate of 5% or less (almost no effect)). The “effect on persian speedwell (R)” value (persian speedwell [4]) was 5 (Herbicidal rate of 90% or more (almost completely withered)), the “effect on green foxtail (G)” value (green foxtail [5]) was 4 (Herbicidal rate of 70% or more and less than 90%) and the “effect on barnyard grass (H)” value (barnyard grass [6]) was 4 (Herbicidal rate of 70% or more and less than 90%). The “herbicidal effect on D (Chinese sprangletop), rating 0-5” value (Chinese sprangletop) was 3 (Herbicidal rate of 40% or more and less than 70%), the “G: green foxtail, herbicidal effect rating” value (green foxtail [7]) was 0 (Herbicidal rate of 5% or less (almost no effect)) and the “O: lambsquarters, herbicidal effect rating” value (lambsquarters [8]) was 3 (Herbicidal rate of 40% or more and less than 70%). For the same molecule, the “effect on lambsquarters (O)” value (lambsquarters [9]) was 5 (Herbicidal rate of 90% or more (almost completely withered)), the “F: southern crabgrass, herbicidal effect rating” value (southern crabgrass [10]) was 0 (Herbicidal rate of 5% or less (almost no effect)) and the “effect on windgrass (L)” value (windgrass [11]) was 0 (Herbicidal rate of 5% or less (almost no effect)). For the same molecule, the “I: wild oat, herbicidal effect rating” value (wild oat [12]) was 0 (Herbicidal rate of 5% or less (almost no effect)), the “H: barnyard grass, herbicidal effect rating” value (barnyard grass [13]) was 0 (Herbicidal rate of 5% or less (almost no effect)) and the “effect on Italian ryegrass (K)” value (Italian ryegrass [14]) was 4 (Herbicidal rate of 70% or more and less than 90%). The “effect on wild oat (I)” value (wild oat [15]) was 0 (Herbicidal rate of 5% or less (almost no effect)), the “effect on southern crabgrass (F)” value (southern crabgrass [16]) was 4 (Herbicidal rate of 70% or more and less than 90%) and the “M: velvetleaf, herbicidal effect rating” value (velvetleaf [17]) was 0 (Herbicidal rate of 5% or less (almost no effect)). The “P: chickweed, herbicidal effect rating” value (chickweed) was 0 (Herbicidal rate of 5% or less (almost no effect)), the “effect on blackgrass (J)” value (blackgrass [18]) was 0 (Herbicidal rate of 5% or less (almost no effect)) and the “effect on velvetleaf (M)” value (velvetleaf [19]) was 5 (Herbicidal rate of 90% or more (almost completely withered)). For the same molecule, the “herbicidal effect on H (barnyard grass), rating 0-5” value (barnyard grass [20]) was 5 (Herbicidal rate of 90% or more (almost completely withered)), the “N: redroot pigweed, herbicidal effect rating” value (redroot pigweed) was 3 (Herbicidal rate of 40% or more and less than 70%) and the “herbicidal effect on E (rice flat sedge), rating 0-5” value (rice flat sedge) was 3 (Herbicidal rate of 40% or more and less than 70%). The “K: Italian ryegrass, herbicidal effect rating” value (Italian ryegrass [21]) was 3 (Herbicidal rate of 40% or more and less than 70%) and the “Q: false cleavers, herbicidal effect rating” value (false cleavers) was 0 (Herbicidal rate of 5% or less (almost no effect)).
